Like-named read-outs stand apart in the source and are kept apart here.
Legend:
[1] = Rat pharmacokinetics, oral gavage; type: in vivo, Sprague-Dawley rats; design: AUClast/D: unit not given here; details: for MRT inf: read-out: MRTInf—obs; for Tmax: read-out: Tmax
Protocol: Groups, Dosing, and Collection. […] Three rats per group were perorally administered 20, 60, or 200 mg Compound 1 free acid or 25, 75, or 250 mg in 0.5% methylcellulose in Saline for a final concentration of 2, 6, or 20 mg/mL Compound 1 free acid or 2.5, 7.5, or […]. Plasma was collected at 5 min, 15 min, 30 min, 1 hour, 2 hour, 4 hour, 6 hour, 8 hour, and 24 hour post dose via jugular vein.
Stock and Dose Prep. Stock solutions were prepared by dissolving 2.47 mg of Compound 1 (free acid) in 2.470 mL DMSO with vortexing to obtain 1 mg/mL solution of Compound 1 (free acid), or 2.09 mg of Compound 1 (Tris salt) in […] DMSO with vortexing to obtain 1 mg/mL solution of Compound 1 (Tris salt). Dosing solutions were prepared by vortexing/sonicating the following solids in solvent:
LC MS-MS Analysis. Liquid Chromatography with tandem mass spectrometry was used to determine plasma concentrations of Compound 1 Free Acid and Compound 1 Tris Salt in plasma samples collected at prescribed time points.
Appropriate serial concentrations of working solutions were achieved by diluting stock solution of analyte with 50% acetonitrile in water solution. Five μL of working solutions (10, 20, 50, 100, 500, 1000, 5000, 8000, 10000 ng/mL) were added to 50 μL of the blank male SD Rat plasma to achieve calibration standards of 1˜1000 ng/ml (1, 2, 5, 10, 50, 100, 500, 800, 1000 ng/mL) in a total volume of 55 μL. Five quality control (QC) samples at 2 ng/mL, 5 ng/mL, 10 ng/mL, 50 ng/mL and 800 ng/mL for plasma were prepared independently of those used for the calibration curves. These QC samples were prepared on the day of analysis in the same way as calibration standards. 55 μL standards, 55 μL QC samples and 55 μL unknown samples (50 μL plasma/blood with 5 μL blank solution) were added to 200 μL of methanol containing internal standard (dexamethasone) mixture for precipitating protein respectively, and vortexed for 30 seconds. After centrifugation at 4° C. and 4000 rpm for 15 minutes. The supernatant was diluted with water with a ratio of 1:2. 2 μL of the supernatant was injected into the LC/MS/MS system for quantitative analysis.
Instrumentation included HALO 90A C18 2.7 μm 2.1×50 mm HPLC column, a Prominence degasser DGU-20A5R(C), liquid chromatograph Shimadzu LC-30AD with communications bus module CBM-20A and Auto SIL-20AC HT; and an AB Sciex Triple Quad 5500 LC/MS/MS instrument.

in vivo = assay: in vivo; design: species or system beagle dogs; details: both sexes, beagle, dog
Protocol: Compound 1 was administered to beagle dogs by oral gavage in a range finding study at doses of 30, 79, 240, or 790 mg/kg. […] Compound 1 was administered at doses of 10, 50, and 150 mg/kg/day in the pivotal repeat dose toxicity studies for 28 days.
Compound 1 tris salt was evaluated for safety in 7- and 28-day studies in rats and dogs. […] The NOAELs for this rat study were 120 mg/kg/day for males and 75 mg/kg/day for females. […] The NOAEL determined in the 28-day dog GLP study was 150 mg/kg/day. These correspond to human equivalent doses (HEDs) of: • Rat: 75 mg/kg×0.16=12 mg/kg • Dog: 150 mg/kg×0.54=81 mg/kg

[2] = Sprague-Dawley, plasma, rat PO 20 mg/kg, female, mean
[3] = Sprague-Dawley, plasma, rat PO 20 mg/kg, male, mean
[4] = Sprague-Dawley, plasma, rat PO 60 mg/kg, female, mean
[5] = Sprague-Dawley, plasma, rat PO 60 mg/kg, male, mean
[6] = Sprague-Dawley, plasma, rat PO 200 mg/kg, female, mean
[7] = Sprague-Dawley, plasma, rat PO 200 mg/kg, male, mean

In the case of `CC(C)(OCc1cc(-c2cccc(OC3CCC3)c2)n(-c2ccccc2N2CCC2)n1)C(=O)O` [Compound 1, 2-((1-(2-(azetidin-1-yl)phenyl)-5-(3-cyclobutoxyphenyl)-1H-pyrazol-3-yl)methoxy)-2-methylpropanoic acid], the AUC(0-inf) [1, 2] is reported as 991 µg·h/mL, the half-life [1, 2] is reported as 7 h and the MRT inf [1, 2] is reported as 10 h. It also gave an AUC(0-inf) [1, 3] of 168 µg·h/mL, a half-life [1, 3] of 3.27 h and an MRT inf [1, 3] of 4.54 h. For the same molecule, the AUC(0-inf) [1, 4] was 1770 µg·h/mL, the half-life [1, 4] was 9.1 h and the MRT inf [1, 4] was 13.6 h. It also gave an AUC(0-inf) [1, 5] of 447 µg·h/mL, a half-life [1, 5] of 2.92 h and an MRT inf [1, 5] of 5.33 h. For the same molecule, the AUC(0-inf) [1, 6] was 3820 µg·h/mL, the half-life [1, 6] was 10.4 h and the MRT inf [1, 6] was 15.9 h. It also gave an AUC(0-inf) [1, 7] of 1110 µg·h/mL, a half-life [1, 7] of 3.14 h and an MRT inf [1, 7] of 6.01 h. It also gave an AUC(0-t) ([1]; female, Sprague-Dawley, rat, plasma, po, 20 mg/kg, rat PO 20 mg/kg, female, mean, read-out: AUClast) of 885 µg·h/mL, a Cmax ([1]; female, Sprague-Dawley, rat, plasma, po, 20 mg/kg, rat PO 20 mg/kg, female, mean, read-out: Cmax) of 78.9 µg/mL and a Tmax ([1]; female, Sprague-Dawley, rat, plasma, po, 20 mg/kg, rat PO 20 mg/kg, female, mean) of 2.67 h. It also gave an AUC(0-t) ([1]; female, Sprague-Dawley, rat, plasma, po, 20 mg/kg, rat, Female, PO/20 mg/kg, Mean ± SD, read-out: AUC0-24) of 885 µg·h/mL, a Cmax ([1]; female, Sprague-Dawley, rat, plasma, po, 20 mg/kg, rat, Female, PO/20 mg/kg, Mean ± SD, read-out: Cmax) of 78.8 µg/mL and an AUC(0-t) ([1]; female, Sprague-Dawley, rat, plasma, po, 60 mg/kg, rat PO 60 mg/kg, female, mean, read-out: AUClast) of 1430 µg·h/mL. The Cmax ([1]; female, Sprague-Dawley, rat, plasma, po, 60 mg/kg, rat PO 60 mg/kg, female, mean, read-out: Cmax) was 113 µg/mL, the Tmax ([1]; female, Sprague-Dawley, rat, plasma, po, 60 mg/kg, rat PO 60 mg/kg, female, mean) was 4.67 h and the AUC(0-t) ([1]; female, Sprague-Dawley, rat, plasma, po, 60 mg/kg, rat, Female, PO/60 mg/kg, Mean ± SD, read-out: AUC0-24) was 1430 µg·h/mL. The Cmax ([1]; female, Sprague-Dawley, rat, plasma, po, 60 mg/kg, rat, Female, PO/60 mg/kg, Mean ± SD, read-out: Cmax) was 113 µg/mL, the Tmax ([1]; female, Sprague-Dawley, rat, plasma, po, 60 mg/kg, rat, Female, PO/60 mg/kg, Mean ± SD) was 4.7 ± 2.3 h and the AUC(0-t) ([1]; female, Sprague-Dawley, rat, plasma, po, 200 mg/kg, rat PO 200 mg/kg, female, mean, read-out: AUClast) was 2850 µg·h/mL. It also gave a Cmax ([1]; female, Sprague-Dawley, rat, plasma, po, 200 mg/kg, rat PO 200 mg/kg, female, mean, read-out: Cmax) of 206 µg/mL, a Tmax ([1]; female, Sprague-Dawley, rat, plasma, po, 200 mg/kg, rat PO 200 mg/kg, female, mean) of 4.67 h and an AUC(0-t) ([1]; female, Sprague-Dawley, rat, plasma, po, 200 mg/kg, rat, Female, PO/200 mg/kg, Mean ± SD, read-out: AUC0-24) of 2850 µg·h/mL. It also gave a Cmax ([1]; female, Sprague-Dawley, rat, plasma, po, 200 mg/kg, rat, Female, PO/200 mg/kg, Mean ± SD, read-out: Cmax) of 206 µg/mL, a Tmax ([1]; female, Sprague-Dawley, rat, plasma, po, 200 mg/kg, rat, Female, PO/200 mg/kg, Mean ± SD) of 4.7 ± 1.1 h and an AUC(0-t) ([1]; male, Sprague-Dawley, rat, plasma, po, 20 mg/kg, rat PO 20 mg/kg, male, mean, read-out: AUClast) of 167 µg·h/mL. For the same molecule, the Cmax ([1]; male, Sprague-Dawley, rat, plasma, po, 20 mg/kg, rat PO 20 mg/kg, male, mean, read-out: Cmax) was 30.6 µg/mL, the Tmax ([1]; male, Sprague-Dawley, rat, plasma, po, 20 mg/kg, rat PO 20 mg/kg, male, mean) was 1 h and the AUC(0-t) ([1]; male, Sprague-Dawley, rat, plasma, po, 20 mg/kg, rat, Male, PO/20 mg/kg, Mean ± SD, read-out: AUC0-24) was 167 µg·h/mL. For the same molecule, the Cmax ([1]; male, Sprague-Dawley, rat, plasma, po, 20 mg/kg, rat, Male, PO/20 mg/kg, Mean ± SD, read-out: Cmax) was 30.6 µg/mL, the Tmax ([1]; male, Sprague-Dawley, rat, plasma, po, 20 mg/kg, rat, Male, PO/20 mg/kg, Mean ± SD) was 1 h and the AUC(0-t) ([1]; male, Sprague-Dawley, rat, plasma, po, 60 mg/kg, rat PO 60 mg/kg, male, mean, read-out: AUClast) was 445 µg·h/mL. The Cmax ([1]; male, Sprague-Dawley, rat, plasma, po, 60 mg/kg, rat PO 60 mg/kg, male, mean, read-out: Cmax) was 56.5 µg/mL, the Tmax ([1]; male, Sprague-Dawley, rat, plasma, po, 60 mg/kg, rat PO 60 mg/kg, male, mean) was 2.67 h and the AUC(0-t) ([1]; male, Sprague-Dawley, rat, plasma, po, 60 mg/kg, rat, Male, PO/60 mg/kg, Mean ± SD, read-out: AUC0-24) was 445 µg·h/mL. For the same molecule, the Cmax ([1]; male, Sprague-Dawley, rat, plasma, po, 60 mg/kg, rat, Male, PO/60 mg/kg, Mean ± SD, read-out: Cmax) was 56.5 µg/mL, the Tmax ([1]; male, Sprague-Dawley, rat, plasma, po, 60 mg/kg, rat, Male, PO/60 mg/kg, Mean ± SD) was 2.7 ± 1.2 h and the AUC(0-t) ([1]; male, Sprague-Dawley, rat, plasma, po, 200 mg/kg, rat PO 200 mg/kg, male, mean, read-out: AUClast) was 1100 µg·h/mL. It also gave a Cmax ([1]; male, Sprague-Dawley, rat, plasma, po, 200 mg/kg, rat PO 200 mg/kg, male, mean, read-out: Cmax) of 115 µg/mL, a Tmax ([1]; male, Sprague-Dawley, rat, plasma, po, 200 mg/kg, rat PO 200 mg/kg, male, mean) of 4 h and an AUC(0-t) ([1]; male, Sprague-Dawley, rat, plasma, po, 200 mg/kg, rat, Male, PO/200 mg/kg, Mean ± SD, read-out: AUC0-24) of 1100 µg·h/mL. For the same molecule, the Cmax ([1]; male, Sprague-Dawley, rat, plasma, po, 200 mg/kg, rat, Male, PO/200 mg/kg, Mean ± SD, read-out: Cmax) was 115 µg/mL, the Tmax ([1]; male, Sprague-Dawley, rat, plasma, po, 200 mg/kg, rat, Male, PO/200 mg/kg, Mean ± SD) was 4 ± 2 h and the AUClast/D ([1]; rat PO 20 mg/kg, female, mean) was 44231. For the same molecule, the “AUC—% Extrap—obs” value ([1]; rat PO 20 mg/kg, female, mean) was 9.9%, the Cmax ([1]; rat PO 20 mg/kg, female, mean, listed as Free Acid, 20 mg/kg) was 78.833 µg/mL and the “AUC—% Extrap—obs” value ([1]; rat PO 20 mg/kg, male, mean) was 0.61%. For the same molecule, the AUClast/D ([1]; rat PO 60 mg/kg, female, mean) was 23759, the “AUC—% Extrap—obs” value ([1]; rat PO 60 mg/kg, female, mean) was 16.7% and the AUClast/D ([1]; rat PO 60 mg/kg, male, mean) was 7419. The “AUC—% Extrap—obs” value ([1]; rat PO 60 mg/kg, male, mean) was 0.477%, the AUClast/D ([1]; rat PO 200 mg/kg, female, mean) was 14265 and the “AUC—% Extrap—obs” value ([1]; rat PO 200 mg/kg, female, mean) was 22.1%. For the same molecule, the AUClast/D ([1]; rat PO 200 mg/kg, male, mean) was 5525, the “AUC—% Extrap—obs” value ([1]; rat PO 200 mg/kg, male, mean) was 0.704% and the Clinical symptoms ([1]; rats, single oral gavage dose) was “No abnormal clinical symptoms were observed”. For the same molecule, the NOAEL at 28 days (in vivo) was 150 mg/kg/day.
